Assay [1] concerns the target T1, MLL1 (Homo sapiens, UniProt Q03164).
T1 construct: purchased Reaction Biology
The assay can be described thus: Radioisotope-based methyltransferase assay (selectivity). Type of assay: biochemical.

For assay [2], the target named is T2, GLP (Homo sapiens, UniProt Q9H9B1).
T2 sequence (Q9H9B1 1-1298): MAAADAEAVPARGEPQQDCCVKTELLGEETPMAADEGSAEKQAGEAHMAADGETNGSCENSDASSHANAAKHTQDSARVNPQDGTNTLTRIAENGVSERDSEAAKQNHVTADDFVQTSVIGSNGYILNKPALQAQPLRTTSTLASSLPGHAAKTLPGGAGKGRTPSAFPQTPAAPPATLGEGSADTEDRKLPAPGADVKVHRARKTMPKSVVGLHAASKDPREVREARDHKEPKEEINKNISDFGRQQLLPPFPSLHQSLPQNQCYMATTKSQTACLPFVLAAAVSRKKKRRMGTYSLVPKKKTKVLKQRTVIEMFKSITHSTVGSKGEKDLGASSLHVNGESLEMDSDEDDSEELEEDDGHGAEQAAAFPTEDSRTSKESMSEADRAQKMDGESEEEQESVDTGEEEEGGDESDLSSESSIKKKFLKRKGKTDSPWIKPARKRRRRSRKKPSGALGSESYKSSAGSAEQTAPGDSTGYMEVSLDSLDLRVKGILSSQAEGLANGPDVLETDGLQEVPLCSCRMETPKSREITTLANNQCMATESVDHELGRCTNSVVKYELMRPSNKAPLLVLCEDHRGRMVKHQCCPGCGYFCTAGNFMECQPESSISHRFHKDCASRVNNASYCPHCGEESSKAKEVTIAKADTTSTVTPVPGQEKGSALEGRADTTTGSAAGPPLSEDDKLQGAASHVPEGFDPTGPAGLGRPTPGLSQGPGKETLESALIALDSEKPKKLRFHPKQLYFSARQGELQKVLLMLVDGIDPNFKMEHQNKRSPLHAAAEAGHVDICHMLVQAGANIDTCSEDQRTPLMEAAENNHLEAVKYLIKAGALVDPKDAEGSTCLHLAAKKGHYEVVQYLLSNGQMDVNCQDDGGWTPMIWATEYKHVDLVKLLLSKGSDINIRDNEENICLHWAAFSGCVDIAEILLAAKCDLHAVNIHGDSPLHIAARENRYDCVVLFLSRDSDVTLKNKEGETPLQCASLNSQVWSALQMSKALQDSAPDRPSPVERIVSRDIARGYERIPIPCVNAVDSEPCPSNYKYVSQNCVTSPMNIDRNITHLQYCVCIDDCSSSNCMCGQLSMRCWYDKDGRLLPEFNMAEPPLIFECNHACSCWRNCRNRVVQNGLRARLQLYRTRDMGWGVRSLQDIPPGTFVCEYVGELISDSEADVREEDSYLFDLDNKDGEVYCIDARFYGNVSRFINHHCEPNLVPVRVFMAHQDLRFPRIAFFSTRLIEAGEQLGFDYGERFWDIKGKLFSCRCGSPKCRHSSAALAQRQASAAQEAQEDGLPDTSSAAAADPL
The assay is described as above.

Assay [3] deals with T3, G9a (Homo sapiens, UniProt Q96KQ7).
T3 sequence (Q96KQ7 1-1210): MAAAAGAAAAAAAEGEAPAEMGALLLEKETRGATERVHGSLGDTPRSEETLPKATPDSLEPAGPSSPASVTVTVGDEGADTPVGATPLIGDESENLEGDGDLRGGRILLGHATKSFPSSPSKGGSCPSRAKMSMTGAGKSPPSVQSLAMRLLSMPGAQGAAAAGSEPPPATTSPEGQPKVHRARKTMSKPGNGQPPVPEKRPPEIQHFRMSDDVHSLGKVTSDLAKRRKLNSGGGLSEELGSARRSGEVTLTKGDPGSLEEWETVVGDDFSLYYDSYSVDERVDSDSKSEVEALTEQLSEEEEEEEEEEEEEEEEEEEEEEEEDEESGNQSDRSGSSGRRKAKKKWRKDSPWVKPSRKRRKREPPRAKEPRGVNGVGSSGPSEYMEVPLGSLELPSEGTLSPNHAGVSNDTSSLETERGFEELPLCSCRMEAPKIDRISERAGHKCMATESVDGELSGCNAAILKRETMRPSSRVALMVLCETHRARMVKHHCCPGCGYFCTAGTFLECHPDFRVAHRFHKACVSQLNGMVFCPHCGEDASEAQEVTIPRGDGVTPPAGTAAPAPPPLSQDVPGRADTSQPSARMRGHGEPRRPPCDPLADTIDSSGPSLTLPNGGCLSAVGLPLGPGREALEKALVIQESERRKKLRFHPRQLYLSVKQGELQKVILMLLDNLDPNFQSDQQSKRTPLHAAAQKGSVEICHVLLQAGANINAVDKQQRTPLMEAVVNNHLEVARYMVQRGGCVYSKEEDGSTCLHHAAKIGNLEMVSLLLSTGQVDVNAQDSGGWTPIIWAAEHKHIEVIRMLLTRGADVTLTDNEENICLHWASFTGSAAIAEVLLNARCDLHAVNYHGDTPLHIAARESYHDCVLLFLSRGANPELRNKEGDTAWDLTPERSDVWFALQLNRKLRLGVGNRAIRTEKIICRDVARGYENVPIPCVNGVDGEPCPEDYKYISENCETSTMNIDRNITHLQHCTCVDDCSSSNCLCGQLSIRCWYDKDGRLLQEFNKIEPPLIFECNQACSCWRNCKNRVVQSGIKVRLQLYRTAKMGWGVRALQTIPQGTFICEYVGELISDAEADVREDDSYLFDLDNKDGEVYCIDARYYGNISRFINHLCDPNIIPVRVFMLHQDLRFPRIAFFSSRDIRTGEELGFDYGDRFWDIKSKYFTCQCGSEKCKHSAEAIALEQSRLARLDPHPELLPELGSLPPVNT
The assay can be described thus: In vitro G9a methyltransferase assay (AlphaLISA-based). It is filed as biochemical. More on the design: purchased BPS Bioscience. How it is done: An amplified luminescence proximity homogeneous assay (ALPHA) was performed with a modified version of a previously described method. Recombinant G9a proteins (BPS Bioscience) were incubated with 15 μM S-adenosyl-methionine (Sigma) and 50 nM biotinylated histone H3 (1-21; AnaSpec) in the assay buffer (50 mM Tris-HCl (pH 9.0), 50 mM NaCl, 0.01% Tween-20, and 1 mM DTT). After incubation at room temperature for 1 h, AlphaLISA anti-H3K9me2 acceptor beads (final concentration 10 μg/mL, PerkinElmer, AL117C) and AlphaScreen streptavidin donor beads (final concentration 10 μg/mL, PerkinElmer, 6760002B) were added and incubated for an additional 1 h prior to detection of the alpha signal with an EnSpire Alpha plate reader (PerkinElmer). ALPHA profile was analyzed using Origin (OriginLab).

Where [4] appears, read: G9a activity, 0.016 μM, single experiment.
The mark [5] stands for this setting: G9a activity, 0.08 μM, single experiment.
Setting [6] is: G9a activity, 2 μM, single experiment.
[7] abbreviates: G9a activity, 10 μM, single experiment.
[8] abbreviates: G9a activity, 50 μM, single experiment.
Setting [9] is: G9a activity, single experiment.
[10] abbreviates: G9a activity, 0.4 μM, single experiment.

Several values for one entry are separate records, joined by “and”; a condition that tells them apart may be missing. Equal entries are not always repeated. Where two headings read alike, the source gives them in different places. Where only a bound is given, the exact number is not on record here.

For the molecule `Nc1ncnc2c1ncn2[C@@H]1O[C@H](CSCC[C@H](N)C(=O)O)[C@@H](O)[C@H]1O` [SAH, S-(5'-Adenosyl)-L-homocysteine, reference compound], the IC50 in assay [1] (MLL1, 1 μM SAM) came out at 1.3 µM; in assay [1] (MLL1, RK-701 in duplicate) it was 1.31 µM; in assay [2] (1 μM SAM), 3.86 µM.
Consider `Cc1c(C(=O)N[C@H](CCC2CC2)C(=O)Nc2ccc(C#N)cc2)[nH]c2c1C(=O)CC(C)(C)C2` [RK-0133114], for which the IC50 was 3.7 µM in assay [3] (G9a); 3.01 µM and 3.62 µM and 4.44 µM in assay [3] (setting [9]). Besides, the Inhibition % in assay [3] (G9a activity, 0.0032 μM, single experiment) is 9.4545% and 6.383% and 0%; in assay [3] (setting [4]), 4.31% and 2.981% and 0%; in assay [3] (setting [5]), 0% and 8.43%; in assay [3] (setting [6]) it was 32.9012% and 25.4405%; in assay [3] (setting [7]) it was 77.5611% and 74.8715%; in assay [3] (setting [8]) it was 96.0953% and 94.6907%. 2 µM produced 42.7% inhibition in assay [3] (setting [6]). Moreover, the inhibition at 10 µM in assay [3] (setting [7]) worked out at 74.3%. This molecule also yielded an inhibition at 50 µM in assay [3] (setting [8]) of 97.9%.
Turning to `Cc1c(C(=O)NC(CCC2CC2)C(=O)Nc2ccc(C#N)cc2)[nH]c2c1C(=O)CC(C)(C)C2` (stereo not shown) [RK-701], the IC50 is more than 100 µM in assay [1] (MLL1, 1 μM SAM); more than 100 µM in assay [1] (MLL1, RK-701 in duplicate); 0.023 to 0.027 µM and 0.027 µM in assay [3] (G9a); 0.0248 µM and 0.029 µM and 0.0285 µM in assay [3] (setting [9]); 0.053 µM in assay [2]. Also, the Inhibition % in assay [3] (G9a activity, 0.00064 μM, single experiment) was 6.475% and 0%; in assay [3] (setting [4]), 30.3347% and 30.0776%; in assay [3] (setting [5]), 81.1273% and 81.8822%; in assay [3] (setting [10]) it was 98.9416% and 99.213%; in assay [3] (setting [6]), 99.979% and 99.9697%. This molecule also registered an inhibition at 0.016 µM in assay [3] (setting [4]) of 35.6%. This molecule displayed an inhibition at 0.08 µM in assay [3] (setting [5]) of 82.3%. In assay [3] (setting [10]), this molecule registered an inhibition at 0.4 µM of 99.3%. Further, the inhibition at 2 µM in assay [3] (setting [6]) was determined as 100%.

(Values after article PMC9837035 (Nature Communications, 2023).)
